Patent publication US20230381192A1, “METHODS FOR CONTROLLING AND PREDICTING RECOVERY AFTER NMBA ADMINISTRATION” (Cornell University, priority 2020, published 2023)

Experiments:
Rhesus monkeys = experiment: Spontaneous recovery from NMB (twitch 5% to 95% of baseline) after bolus or infusion in Rhesus monkeys under isoflurane; assay type: in vivo, Rhesus monkey; settings: for 5%-95% Interval: mean ± SD
Description: Rhesus monkeys under isoflurane anesthesia were administered a bolus dose of either RP2000 or RP1000 at a dose equal to 1× to 10× the ED95 in Rhesus monkeys of the administered compound (ED95,Rp1000=0.040 mg/kg; ED95,RP2000=0.053 mg/kg). Twitch (0.15 Hz) and TOF (2 Hz×2 seconds) were recorded throughout the 6 -10 hours experiments. Time to spontaneous recovery after bolus administration, characterized by recovery of twitch from 5% to 95% of baseline was measured.
Separately, continuous infusions of 20-180 minutes duration were given (to separate subjects), and after discontinuation of infusion, time to spontaneous recovery of NMB, characterized by recovery of twitch from 5% to 95% of baseline was measured.

[1] = Predicted spontaneous recovery after RP2000 in patients under inhaled anesthesia; assay type: in vivo, human; settings: doses up to 2.5-3× the ED95
Source text: While not wishing to be bound by theory, it is believed that the highly reproducible half-life is due to degradation of RP1000 through cysteine adduction (e.g., by reaction with glutathione). The advantages imparted by the understanding of the pharmacodynamics of RP1000 include, but are not limited to, that the level of recovery of function may be easily predicted in human patients. […] This disclosure therefore reflects this prediction.

## COc1ccc(C[C@@H]2c3cc(OC)c(OC)cc3CC[N@@+]2(C)CCCOC(=O)/C=C/C(=O)OCCC[N+]2(Cc3ccc(OC)c(OC)c3)CCOCC2)cc1.[Cl-].[Cl-] [RP2000, 4-(3-(((E)-4-(3-((1R)-6,7-dimethoxy-1-(4-methoxybenzyl)-2-methyl-1,2,3 4-tetrahydro-2-isoquinolin-2-ium-2-yl)propoxy)-4-oxobut-2-enoyl)oxy)propyl)-4-(3,4-dimethoxybenzyl)morpholin-4-ium]
Rhesus monkeys; Rhesus monkeys, isoflurane anesthesia
  ED95 in Rhesus monkeys: 0.053 mg/kg
Rhesus monkeys; after continuous infusion of 20-180 minutes
  5%-95% Interval: 6.2 ± 1.4 min
Rhesus monkeys; bolus dose 0.10 mg/kg
  5%-95% Interval: 6.1 ± 1.6 min
Rhesus monkeys; bolus dose 0.20 mg/kg
  5%-95% Interval: 6.4 ± 1.9 min
Rhesus monkeys; bolus dose 0.50 mg/kg
  5%-95% Interval: 6.7 ± 2.4 min
[1]
  predictability of spontaneous recovery: highly predictable
